Results on one compound are retold here after patent US8828678B2, “Self-immolative probes for enzyme activity detection” (Enzo Life Sciences, Inc., priority 2010, dated 2014).

A short description of this assay: Chemical reduction of CD-8 and enzymatic (HRP) luminescence testing of the reduction product. The note with it: 200 μM CD-8, 1 mM sodium hydrosulfite, 1 hour room temperature, then H2O2, 4-iodophenol. The method, then: 100 μl of 200 μM CD-8 (dissolved in 1×PBS buffer) with (1 mM) or without sodium hydrosulfite was incubated in a 96 black microplate (Greiner®) at room temperature for 1 hour. Also included was a positive control of 100 μl of 50 μM of isoluminol dissolved in 1×PBS buffer. A 4:1 volumetric mixture (1.25 μL) of stabilized H2O2 (Roche Diagnotics GmbH: Reference number: 11 582 950 001, component 2) and 200 mM of 4-idophenol was then added. Before adding horseradish peroxidase (HRP), the background luminescence was recorded; after adding 2 μL of 50 μM HRP, the luminescence was immediately recorded on a Biotek® plate reader.

Consider `O=C(Nc1ccc2c(=O)[nH][nH]c(=O)c2c1)OCc1ccc([N+](=O)[O-])cc1` [CD-8], for which the “luminescence / release of isoluminol after sodium hydrosulfite” value was “triggering the self-immolative release of isoluminol”.
